Where a SMILES comes first, the peptide text is derived from it.
Experiments:
HPV16-positive cells = assay: Cytotoxicity assay (VITAL FR / live-cell imaging-based) with peptide-specific CD8+ T cells; parameters: species or system human; key: +: cytotox: Ability of peptide-specific T cells to kill HPV16-positive cells.; +*: *highlights data from published resources.; *highlights data from published resources
Method: The flow cytometry based VITAL FR cytotoxicity assay was used as published by Stanke et al. (Stanke et al., 2010) to assess whether peptide-specific T cells are able to specifically kill HPV-transformed target cells. Briefly, two HLA-A2+ cell lines, a HPV16-negative (HPV16−) control cell line (C33A) and a HPV16-positive (HPV16+) target cell line (CaSki) were fluorescently labeled with either FarRed or CFSE and were co-incubated with peptide-specific CD8+ T cells as effector cells. After 48 h co-incubation, the fluorescently labeled cells were analyzed by flow cytometry to determine the surviving cells and calculate the specific cytolytic function of the effector cells by the ratio of target and control cells.
CaSki and C33A cells were fluorescently labeled with CFSE and FarRed, respectively. Cells of both cell lines were harvested and resuspended in plain RPMI medium at a concentration of 1×10^6 cells/mL. For cell labeling, 5 μM CSFE were added to CaSki cells and 0.25 μM FarRed were added to C33A cells. The cells were incubated at 37° C. and the reaction was stopped after 10 min by addition of 50 mL RPMI with 10% FBS. The cells were centrifuged at 300×g for 5 min, the supernatant was discarded and the cells were resuspended in their cell culture medium. The labeled cells were seeded in T25 cell culture flasks with 1-2×10^6 cells/flask.
On the next day, the labeled CaSki and C33A as well as the epitope-specific semi-long-term T cell lines (described in 1.6) were harvested. CD8+ T cells were isolated from the epitope-specific semi-long-term T cell lines using the MACS CD8+ T cell isolation kit (Miltenyi Biotec) according to the manufacturer's protocol for LS columns. The CD8+ T cells were resuspended in T cell medium and added to wells of a F-bottom 96-well plate in serial dilutions to achieve triplicates of 6×10^4, 3×10^4, 1.5×10^4, 0.75×10^4 and 0.375×10^4 cells per well. The CaSki and C33A cells were mixed 1:1 in T cell medium and 3×10^3 cells were added to each well containing T cells. Thereby effector:target (E:T) ratios of […] were achieved. Additionally, triplicates of mixed target cells without T cells were seeded, which is referred to as E:T 0. After 48 h incubation at 37° C., 5% C02, the cells were harvested and analyzed at a BD FACS Canto™ II analyzer using the BD FACS Diva Software Version 6. The obtained data were analyzed with the FlowJo software Version 10 by applying the same gating strategy to all samples. Subsequently, the equations (1) and (2) given below were applied in Excel (Microsoft Office 2016) to calculate specific killing.
Semi long-term T cell lines were set up to obtain high numbers of T cells, which are required for the analysis of epitope specific cytotoxic T cell responses in VITAL FR cytotoxicity assays. Autologous DCs were generated from PBMCs as described in 1.7 and loaded with the desired HPV16 peptide. PBMCs of the same donor were thawed and resuspended in T cell medium supplemented with rhIL-7 (10 ng/mL) and rhIL-15 (20 ng/mL). 1×10^7 PBMCs/well were seeded to a 24-well plate in a total volume of 1 mL/well. Peptide-loaded DCs were added in a ratio of 50:1 (PBMCs:DCs) in 1 mL rhIL-7 (10 ng/mL) and rhIL-15 (20 ng/mL) supplemented T cell medium to achieve a final volume of 2 mL. The cell cultures were fed with rhIL-2 (final concentration: 40 U/mL) every other day. If the medium turned yellow the feeding was combined with a half medium change with 1 mL fresh IL-2 supplemented T cell medium. After eight days, the peptide stimulation with peptide-loaded DCs was repeated and cultivation was continued. On day 15, the T cell lines were harvested and used for CD8+ T cell isolation and cytotoxicity assays.
In addition to the VITAL FR assay described herein above, a newly established live-cell imaging-based cytotoxicity assay was applied. […]

[1] = system: short-term antigen-specific T cell lines generated from PBMCs; assay: Interferon-γ ELISpot assay on short-term antigen-specific T cell lines; assay type: cell-based, human; settings: HLA restriction A24

Molecule	cytotox: Ability of peptide-specific T cells to kill HPV16-positive cells (HPV16-positive cells; HLA restriction A02)	ELISpot: Immungenicity of the peptide shown by IFN-gamma ELISPOT analysis [1]	cytotox: Ability of peptide-specific T cells to kill HPV16-positive cells (HPV16-positive cells; HLA restriction A24)
CSCC[C@H](NC(=O)[C@H](CC(C)C)NC(=O)[C@H](CC(C)C)NC(=O)[C@H](CC(=O)O)NC(=O)[C@H](CCC(=O)O)NC(=O)[C@H](CC(C)C)NC(=O)[C@@H](NC(=O)[C@@H](N)CCCNC(=N)N)[C@@H](C)O)C(=O)NCC(=O)N[C@H](C(=O)N[C@@H](CC(C)C)C(=O)O)[C@@H](C)O [compound 19] (H-RTLEDLLMGTL-OH)	+	–	–
CC[C@H](C)[C@H](NC(=O)[C@@H]1CCCN1C(=O)[C@H](CS)NC(=O)[C@@H](NC(=O)[C@@H](NC(=O)CNC(=O)[C@H](CC(C)C)NC(=O)[C@@H](NC(=O)CNC(=O)[C@H](CCSC)NC(=O)[C@@H](N)CC(C)C)[C@@H](C)O)[C@@H](C)CC)C(C)C)C(=O)O [compound 25] (H-LMGTLGIVCPI-OH)	+	–	–
CC[C@H](C)[C@H](NC(=O)[C@@H]1CCCN1C(=O)[C@H](CS)NC(=O)[C@@H](NC(=O)[C@@H](NC(=O)CNC(=O)[C@H](CC(C)C)NC(=O)[C@@H](NC(=O)CNC(=O)[C@@H](N)CCSC)[C@@H](C)O)[C@@H](C)CC)C(C)C)C(=O)O [compound 33] (H-MGTLGIVCPI-OH)	+	–	–
CC[C@H](C)[C@H](NC(=O)[C@H](CC(=O)O)NC(=O)[C@H](Cc1c[nH]cn1)NC(=O)[C@@H](NC(=O)[C@@H](NC(=O)[C@@H](N)[C@@H](C)O)[C@@H](C)O)[C@@H](C)CC)C(=O)N[C@H](C(=O)N[C@@H](CC(C)C)C(=O)N[C@@H](CCC(=O)O)C(=O)N[C@@H](CS)C(=O)N[C@H](C(=O)O)C(C)C)[C@@H](C)CC [compound 49] (H-TTIHDIILECV-OH)	+	–	–
CC[C@H](C)[C@H](NC(=O)CNC(=O)[C@H](CC(C)C)NC(=O)[C@@H](NC(=O)CNC(=O)[C@H](CCSC)NC(=O)[C@H](CC(C)C)NC(=O)[C@@H](N)CC(C)C)[C@@H](C)O)C(=O)N[C@H](C(=O)N[C@@H](CS)C(=O)N1CCC[C@H]1C(=O)O)C(C)C [compound 44] (H-LLMGTLGIVCP-OH)	+	–	–
83 (TFCCKCDSTL; Human papillomavirus 16) [compound 83]	–	+	+

— patent US20260240976A1, “T[…] VACCINES BASED ON VALIDATED TARGET EPITOPES” (Deutsches Krebsforschungszentrum Stiftung des öffentlichen …, priority 2023, published 2026)
